Experimental data taken from patent publication US8901316B2, “Process for preparing aminoadamantyl carbamate derivatives” (Shionogi & Co., Ltd., priority 2010, dated 2014).

Test: stability to temperature and humidity changes (storage/handling)
Format: physicochemical
Conditions: solid; storage without desiccant agent or without being sealed

## aminoadamantane carbamate hydrochloride dihydrate [III-2]
  stability to temperature and humidity changes: stable to temperature and humidity changes
